Common to all, as to assay: relative viability (nuclei count vs DMSO), 5 days (fraction); higher = more cells survive
Compound in assay [1]: CC1=NN=C(O1)C2=NN=C(C=C2)N3CCC(CC3)OC4=C(C=CC(=C4)F)Cl + CS(=O)(=O)CCNCc1ccc(-c2ccc3ncnc(Nc4ccc(OCc5cccc(F)c5)c(Cl)c4)c3c2)o1 [Lapatinib] (partner 2 µM)
The gist of the method:
(§1)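 The day after seeding in 1536-well plates, lung cancer cell lines were treated by pin tool with a single drug, or with a fixed anchor-drug dose together with five library-drug doses (not always all listed) in √10 steps. After 5 days, a combined fix-and-stain solution (final 0.05% Triton X-100, 1% formaldehyde, 1 ug/ml Hoechst) was added. Nuclei counted on 4× images gave relative viability as treated counts over vehicle counts, reported as the median of duplicate plates.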

Compound in the assay “Tosedostat + Dasatinib”: CC(C)C[C@@H](C(=O)N[C@H](C(=O)OC1CCCC1)c1ccccc1)[C@H](O)C(=O)NO [Tosedostat] + Cc1nc(Nc2ncc(C(=O)Nc3c(C)cccc3Cl)s2)cc(N2CCN(CCO)CC2)n1 [Dasatinib] (partner 0.075 µM)
The gist of the method:
as §1

Compound in the assay “Tosedostat + Pemetrexed”: CC(C)C[C@@H](C(=O)N[C@H](C(=O)OC1CCCC1)c1ccccc1)[C@H](O)C(=O)NO [Tosedostat] + Nc1nc2[nH]cc(CCc3ccc(C(=O)N[C@@H](CCC(=O)O)C(=O)O)cc3)c2c(=O)[nH]1 [Pemetrexed] (partner 0.2 µM)
The gist of the method:
as §1

Compound in the assay “Tosedostat + Linsitinib”: CC(C)C[C@@H](C(=O)N[C@H](C(=O)OC1CCCC1)c1ccccc1)[C@H](O)C(=O)NO [Tosedostat] + C[C@]1(O)C[C@@H](c2nc(-c3ccc4ccc(-c5ccccc5)nc4c3)c3c(N)nccn32)C1 [Linsitinib] (partner 1 µM)
The procedure, abridged: as §1

With NCI-H647, the relative viability came out at 0.673 in assay [1] (first compound 0.253 µM); 0.667 in assay [1] (first compound 0.8 µM); 0.824 in assay [1] (first compound 2.53 µM); 0.58 in assay [1] (first compound 8 µM); 0.212 with Tosedostat + Dasatinib (first compound 0.02 µM); 0.211 with Tosedostat + Dasatinib (first compound 0.06325 µM). In addition, the relative viability in the assay with Tosedostat + Dasatinib (first compound 0.2 µM) turned out to be 0.218; with Tosedostat + Dasatinib (first compound 0.6325 µM), 0.197; with Tosedostat + Dasatinib (first compound 2 µM) it was 0.151; with Tosedostat + Pemetrexed (first compound 0.02 µM), 0.178; in the assay with Tosedostat + Pemetrexed (first compound 0.06325 µM) it was 0.163; with Tosedostat + Pemetrexed (first compound 0.2 µM), 0.167. Also, the relative viability in the assay with Tosedostat + Pemetrexed (first compound 0.6325 µM) stood at 0.196; with Tosedostat + Pemetrexed (first compound 2 µM), 0.179; with Tosedostat + Linsitinib (first compound 0.02 µM) it was 1.07; with Tosedostat + Linsitinib (first compound 0.06325 µM), 1.2; in the assay with Tosedostat + Linsitinib (first compound 0.2 µM), 1.01; with Tosedostat + Linsitinib (first compound 0.6325 µM) it was 1.12. In addition, the relative viability with Tosedostat + Linsitinib (first compound 2 µM) was 1.24.

NCI-H1395: the relative viability in assay [1] (first compound 0.253 µM) was 0.849; in assay [1] (first compound 0.8 µM), 0.782; in assay [1] (first compound 2.53 µM) it was 1.02; in assay [1] (first compound 8 µM), 0.873; with Tosedostat + Dasatinib (first compound 0.02 µM), 0.383; with Tosedostat + Dasatinib (first compound 0.06325 µM), 0.426. Further, the relative viability with Tosedostat + Dasatinib (first compound 0.2 µM) stood at 0.448; in the assay with Tosedostat + Dasatinib (first compound 0.6325 µM) it was 0.468; in the assay with Tosedostat + Dasatinib (first compound 2 µM), 0.41; in the assay with Tosedostat + Pemetrexed (first compound 0.02 µM) it was 1.04; with Tosedostat + Pemetrexed (first compound 0.06325 µM), 1.04; in the assay with Tosedostat + Pemetrexed (first compound 0.2 µM), 0.848. Moreover, the relative viability with Tosedostat + Pemetrexed (first compound 0.6325 µM) is 0.927; with Tosedostat + Pemetrexed (first compound 2 µM), 0.725; with Tosedostat + Linsitinib (first compound 0.02 µM), 0.993; with Tosedostat + Linsitinib (first compound 0.06325 µM) it was 0.944; with Tosedostat + Linsitinib (first compound 0.2 µM), 1.03; in the assay with Tosedostat + Linsitinib (first compound 0.6325 µM), 0.821. Moreover, the relative viability with Tosedostat + Linsitinib (first compound 2 µM) is 0.782.

Turning to NCI-H358, the relative viability in assay [1] (first compound 0.253 µM) stood at 0.545; in assay [1] (first compound 0.8 µM), 0.447; in assay [1] (first compound 2.53 µM), 0.55; in assay [1] (first compound 8 µM), 0.451; with Tosedostat + Dasatinib (first compound 0.02 µM), 0.169; with Tosedostat + Dasatinib (first compound 0.06325 µM), 0.183. Besides, the relative viability with Tosedostat + Dasatinib (first compound 0.2 µM) worked out at 0.208; in the assay with Tosedostat + Dasatinib (first compound 0.6325 µM), 0.211; with Tosedostat + Dasatinib (first compound 2 µM) it was 0.208; with Tosedostat + Pemetrexed (first compound 0.02 µM) it was 0.173; with Tosedostat + Pemetrexed (first compound 0.06325 µM), 0.2; in the assay with Tosedostat + Pemetrexed (first compound 0.2 µM) it was 0.164. The relative viability with Tosedostat + Pemetrexed (first compound 0.6325 µM) is 0.143; with Tosedostat + Pemetrexed (first compound 2 µM), 0.161; with Tosedostat + Linsitinib (first compound 0.02 µM), 0.944; with Tosedostat + Linsitinib (first compound 0.06325 µM), 0.788; with Tosedostat + Linsitinib (first compound 0.2 µM), 0.544; in the assay with Tosedostat + Linsitinib (first compound 0.6325 µM), 0.548. Further, in the assay with Tosedostat + Linsitinib (first compound 2 µM), the relative viability worked out at 0.507.

Regarding SW 1573, the relative viability in assay [1] (first compound 0.253 µM) amounted to 1.03; in assay [1] (first compound 0.8 µM), 1.09; in assay [1] (first compound 2.53 µM) it was 0.877; in assay [1] (first compound 8 µM), 0.932; with Tosedostat + Dasatinib (first compound 0.02 µM), 0.572; in the assay with Tosedostat + Dasatinib (first compound 0.06325 µM) it was 0.36. Besides, the relative viability amounted to 0.368 with Tosedostat + Dasatinib (first compound 0.2 µM); 0.317 in the assay with Tosedostat + Dasatinib (first compound 0.6325 µM); 0.314 in the assay with Tosedostat + Dasatinib (first compound 2 µM); 0.972 in the assay with Tosedostat + Pemetrexed (first compound 0.02 µM); 0.856 with Tosedostat + Pemetrexed (first compound 0.06325 µM); 0.899 with Tosedostat + Pemetrexed (first compound 0.2 µM). Further, the relative viability with Tosedostat + Pemetrexed (first compound 0.6325 µM) was 0.777; with Tosedostat + Pemetrexed (first compound 2 µM), 1; with Tosedostat + Linsitinib (first compound 0.02 µM) it was 0.828; with Tosedostat + Linsitinib (first compound 0.06325 µM) it was 0.973; in the assay with Tosedostat + Linsitinib (first compound 0.2 µM), 0.826; in the assay with Tosedostat + Linsitinib (first compound 0.6325 µM), 0.841. In addition, the relative viability in the assay with Tosedostat + Linsitinib (first compound 2 µM) is 0.551.

With CAL-12T, the relative viability in assay [1] (first compound 0.253 µM) came out at 0.59; in assay [1] (first compound 0.8 µM), 0.565; in assay [1] (first compound 2.53 µM) it was 0.579; in assay [1] (first compound 8 µM), 0.425; with Tosedostat + Dasatinib (first compound 0.02 µM), 0.316; in the assay with Tosedostat + Dasatinib (first compound 0.06325 µM) it was 0.489. In addition, the relative viability came to 0.472 with Tosedostat + Dasatinib (first compound 0.2 µM); 0.381 in the assay with Tosedostat + Dasatinib (first compound 0.6325 µM); 0.217 with Tosedostat + Dasatinib (first compound 2 µM); 1.19 in the assay with Tosedostat + Pemetrexed (first compound 0.02 µM); 1.3 with Tosedostat + Pemetrexed (first compound 0.06325 µM); 1.24 with Tosedostat + Pemetrexed (first compound 0.2 µM). In addition, the relative viability with Tosedostat + Pemetrexed (first compound 0.6325 µM) came to 1.26; in the assay with Tosedostat + Pemetrexed (first compound 2 µM) it was 1.02; with Tosedostat + Linsitinib (first compound 0.02 µM), 0.728; with Tosedostat + Linsitinib (first compound 0.06325 µM), 0.762; with Tosedostat + Linsitinib (first compound 0.2 µM), 0.739; with Tosedostat + Linsitinib (first compound 0.6325 µM), 0.709. In addition, the relative viability with Tosedostat + Linsitinib (first compound 2 µM) came out at 0.642.

These data come from the supplement of paper PMC10307832.
